Patent US8163709B2, “TAK1-D mediated induction of cell death in human cancer cells by specific sequence short double-stranded RNAS” (Board of Regents of the University of Texas System, priority 2008, dated 2012)
“Also recorded” adds a separate entry of the source.

Tests used:
H460 xenograft tumors = assay: Immunohistochemistry for cleaved Caspase-3 in H460 xenograft tumors; format: in vivo, mice; settings: 16 hours after intratumoral injection
Description: To gain an insight into the mechanisms of dsRNA si5-induced growth delay in H460 xenograft tumors shown in FIG. 26, the tumors were analyzed by immunohistochemical staining for apoptotic activation of Caspase-3. Two tumors with a volume of about 500 μl were injected with a liposomal preparation of active and control dsRNA as described above. Sixteen hours after injection mice were sacrificed and the tumors were fixed in formaldehyde. After paraffin embedding 5 μm sections were cut from the central region of the tumor. The sections were stained immunohistochemically using a primary antibody against cleaved Caspase-3. The primary antibody was detected using a biotinylated secondary antibody and an peroxidase ABC-Kit (Vector Laboratories). Diaminobenzidine (DAB) was used as a substrate for immunohistochemical detection and the slides were counterstained with Hematoxylin.

H460 cells = assay: BrdU pulse labeling and flow cytometry of H460 cells; format: cell-based, human
Description: FIGS. 10A-D: Reaction of NCI-H460 cells to activation of p38 MAPK and SAPK/JNK. (FIG. 10A) BrdU labeling was used to determine the amount of NCI-H460 cells in the S phase of the cell cycle. Cells were pulse labeled with 100 μM BrdU for 15 minutes (0 and 4 h) or 10 μM for 1 h (24 h). Dot blots show DNA content versus BrdU signal. The number of S phase cells decreases within a few hours after treatment of cells with siRNA si5. (FIG. 10B) Flow cytometry dot blots, showing the cellular DNA content versus the amount of cleaved Caspase 3. Within 24 h after exposure to siRNA si5 cells in G1 as well as in the S phase of the cell cycle show Caspase 3 activation. (FIG. 10C) Activation of Caspase 3 leads to PARP cleavage and to (FIG. 10D) nuclear chromatin condensation visible in Hoechst 33342 stained NCI-H460 cells, typical of apoptosis.
To test this hypothesis, H460 cells were pulse labeled with BrdU for 15 min at various time points after treatment with siRNA si5 and analyzed by flow cytometry immediately afterwards. […] In particular, it can be seen that the fraction of cells in the S phase of the cell cycle drops from 48% in untreated cells to 27% 4 h after incubating the cells with 20 nM siRNA si5.

TAK1-D = target: T1, TAK1-D (Homo sapiens, UniProt O43318); assay: Binding of radiolabeled siRNAs to immobilized FLAG-TAK1-D; set-up: made in house; settings: kinase assay buffer conditions, 3 experiments
T1 sequence (O43318 1-491 isoform O43318-4): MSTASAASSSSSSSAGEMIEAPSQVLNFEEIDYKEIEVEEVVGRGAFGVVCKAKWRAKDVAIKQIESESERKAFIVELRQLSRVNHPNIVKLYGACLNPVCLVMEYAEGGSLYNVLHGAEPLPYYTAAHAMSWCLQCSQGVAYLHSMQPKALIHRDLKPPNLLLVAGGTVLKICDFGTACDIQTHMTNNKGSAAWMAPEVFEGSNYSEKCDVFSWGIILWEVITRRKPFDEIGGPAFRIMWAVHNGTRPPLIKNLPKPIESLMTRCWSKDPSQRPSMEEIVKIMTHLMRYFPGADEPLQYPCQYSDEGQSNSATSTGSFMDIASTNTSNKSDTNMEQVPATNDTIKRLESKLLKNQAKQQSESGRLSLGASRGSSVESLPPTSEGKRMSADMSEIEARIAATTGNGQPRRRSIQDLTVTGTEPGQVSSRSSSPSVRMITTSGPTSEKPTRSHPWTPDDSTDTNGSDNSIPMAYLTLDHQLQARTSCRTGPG
Excerpt: FIGS. 2A-C: Effect of dsRNAs on the activity of purified recombinant TAK1-D protein. (FIG. 2A) In vitro kinase assay showing the activation of TAK1-D autophosphorylation by siRNA si5. FLAG-tagged TAK1-D and His-tagged TAB1 were coexpressed in Hela cells and purified by immunoprecipitation with anti FLAG antibody. […] Error bars indicate the standard error of 3 experiments.
To verify if siRNA si5 indeed interacts with TAK1-D directly, the activation of the kinase was studied in vitro using purified proteins. […] To test whether the increased activation of the TAK1-D/TAB1 complex by siRNA si5 is caused by an increased affinity of the RNA molecule to the kinase, binding of radiolabeled siRNAs to immunoprecipitated FLAG tagged TAK1-D was measured. In FIG. 2C the amount of RNA bound to immobilized FLAG-TAK1-D is given.

TAK1-A = assay: Autophosphorylation of the other (long) Tak1 splicing variants in H460 cells; format: cell-based, human; settings: siRNA 20 nM
Excerpt: In contrast only the long form (TAK1-A) is able to activate the NFκB pathway through phosphorylation of IKKα/β.

si5: 21-mer siRNA against TLK1 mRNA: GGCUUUUGACCUUUAUGAAtt (SEQ ID NO: 2) / ttCCGAAAACUGGAAAUACUU (SEQ ID NO: 3) (sense GGCUUUUGACCUUUAUGAATT; antisense TTCCGAAAACUGGAAAUACUU; chemistry not given here; one strand is listed 3' to 5')
apoptotic activation of Caspase-3 (DAB staining) (H460 xenograft tumors): visible in many cells | fraction of cells in the S phase of the cell cycle (H460 cells; H460, 4 h after 20 nM, untreated cells 48%): 27% | DNA synthesis (H460 cells; H460, 24 h after treatment): ceased almost completely | cell cycle arrest (H460 cells; NCI-H460, first 24 h): arrest of NCI-H460 cells in the G1, S, and G2 phase of the cell cycle | amount of RNA bound to immobilized FLAG-TAK1-D (TAK1-D): significantly greater; also recorded: increased binding | activating autophosphorylation of the other three splicing variants of Tak1 (TAK1-A): does not induce activating autophosphorylation
